Laboratory results reported in article PMC12491518, “Fabrication of cytotoxic mirror image nanopores” (Nature Communications, 2025).
Where a SMILES comes first, the peptide text is derived from it. [ ]: non-standard residue; d: D form.

How the values were obtained:
[1] = Ion selectivity measurement under asymmetric KCl (reverse potential, Goldman-Hodgkin-Katz); assay type: biochemical; conditions: 0.15 M KCl cis / 1 M KCl trans
Description: High-resolution electrical recordings for the single-channel characterization were conducted in planar lipid bilayers made up of 1,2-diphytanoyl-sn-glycero-3-phosphocholine (DPhPC, Avanti Polar Lipids)[23],[27],[51]. The lipid bilayer is formed across a polytetrafluoroethylene (Teflon) aperture of ~100 µm in diameter. Teflon is placed between the two sides of the Delrin bilayer chamber, partitioning it into cis and trans compartments (600 µL each). For constructing a solvent-free lipid bilayer, the aperture is made lipophilic by pre-painting both sides with hexadecane in n-pentane (1 μL, 5 mg mL^−1)[51]. After ~10 min, the chambers were filled with buffered electrolytes (1 M KCl, 10 mM HEPES, pH 7.4), and DPhPC in n-pentane (1 μL, 5 mg mL^−1) was added. After ~15 min incubation, the lipid bilayer is formed by raising and lowering the electrolyte solution, bringing the two lipid monolayers together at the aperture. […] Ion selectivity was assessed under asymmetric salt conditions with a KCl concentration gradient across the planar lipid bilayer (0.15 M cis/1 M trans) (SI text)[27]. The ion current was acquired and amplified using an Axopatch 200B amplifier, digitized with Digidata 1550B digitizer, and recorded using the pClamp 11 acquisition software (Molecular Devices, CA). […]

proteinase K = proteinase K (Parengyodontium album, UniProt P06873); experiment: Proteinase K enzyme activity on peptides (SDS-PAGE); assay type: in vitro ADME; conditions: 0.5 mg/ml proteinase K, 63°C, 30 min, 10 mM phosphate buffer with 0.1% DDM pH 7.4; SDS-PAGE and bilayer insertion
Description: applied through Ag/AgCl electrodes with agarose salt bridges. The pore formation in the […]
The 'reverse potential' (Vm) was calculated using the Goldman-Hodgkin-Katz equation1. […]
In this equation, R is the universal gas constant (8.314 J.K-1.mol-1), T is the temperature in Kelvin (K = °C + 273.15), F is Faraday's constant (96485 C.mol-1), PK+ is the membrane permeability for K+, PCl- is the relative membrane permeability for Cl-, [K+]cis is the concentration of K+ in the cis side, [K+]trans is the concentration of K+ in the trans side, [Cl-]cis is the concentration of Cl- in the cis side and [Cl-]trans is the concentration of Cl- in the trans side.
The reverse potential for DpPorA and DpPorA DE was calculated to be +21 mV and +40 mV, […]
c) Proteinase K enzyme activity on DpPorA and DpPorA DE pores
DpPorA peptides were prepared in 10 mM phosphate buffer with 0.1% DDM (pH 7.4). A final concentration of 0.5 mg/ml of freshly prepared proteinase K solution was added to the samples.
The reaction mixtures were heated at 63°C for 30 min. The proteolysis was terminated by adding 2 mM PMSF (phenylmethyl sulfonyl fluoride).2 The reaction products were loaded on a Mini-PROTEAN® TGX™ precast gel (Bio-Rad) with Protein Standard Marker (Bio-Rad) […]

Sequence of proteinase K (P06873 106-384, species assumed): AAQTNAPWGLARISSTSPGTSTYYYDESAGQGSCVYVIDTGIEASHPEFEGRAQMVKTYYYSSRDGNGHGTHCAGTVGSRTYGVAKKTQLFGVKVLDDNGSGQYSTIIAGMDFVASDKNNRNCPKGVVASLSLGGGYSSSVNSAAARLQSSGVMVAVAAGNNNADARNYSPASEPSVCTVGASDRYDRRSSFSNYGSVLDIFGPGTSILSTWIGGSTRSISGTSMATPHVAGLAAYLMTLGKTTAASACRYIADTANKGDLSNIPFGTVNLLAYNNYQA

CC[C@@H](C)[C@@H](NC(=O)[C@H](N)CCSC)C(=O)N[C@H](CC(=O)O)C(=O)N[C@H](CCC(N)=O)C(=O)N[C@@H](C(=O)N[C@@H](C(=O)N[C@H](CCC(=O)O)C(=O)N[C@@H](C(=O)N[C@H](Cc1ccccc1)C(=O)NCC(=O)N[C@H](CCC(N)=O)C(=O)N[C@H](CC(C)C)C(=O)NCC(=O)N[C@@H](C(=O)N[C@H](Cc1ccccc1)C(=O)N[C@H](CC(C)C)C(=O)NCC(=O)NCC(=O)N[C@H](Cc1ccccc1)C(=O)NCC(=O)N[C@H](CC(N)=O)C(=O)N[C@@H](C(=O)N[C@H](Cc1ccccc1)C(=O)N[C@H](CCCCN)C(=O)NCC(=O)N[C@H](CC(C)C)C(=O)N[C@H](CCCCN)C(=O)N[C@H](C)C(=O)N[C@@H](C(=O)N[C@@H](C(=O)N[C@H](C)C(=O)N[C@@H](C(=O)N[C@@H](C(=O)N[C@@H](C(=O)N[C@H](CCCCN)C(=O)N[C@H](Cc1c[nH]c2ccccc12)C(=O)N[C@@H](C(=O)N[C@H](C)C(=O)N[C@H](C)C(=O)N[C@H](CCCCN)C(=O)O)[C@H](C)O)C(C)C)[C@H](C)CC)[C@H](C)O)[C@H](C)CC)C(C)C)[C@H](C)CC)[C@H](C)O)[C@H](C)CC)[C@H](C)O)[C@H](C)CC [DpPorA DE] (H-[dM][dI][dD][dQ][dI][dT][dE][dI][dF]G[dQ][dL]G[dT][dF][dL]GG[dF]G[dN][dI][dF][dK]G[dL][dK][dA][dV][dI][dA][dT][dI][dV][dK][dW][dT][dA][dA][dK]-OH; N-terminus and C-terminus assumed)
reverse potential (Vm) [1]: +40 mV | stability to proteinase K (proteinase K): protease-stable

CC[C@@H](C)[C@@H](NC(=O)[C@H](N)CCSC)C(=O)N[C@H](CC(=O)O)C(=O)N[C@H](CCC(N)=O)C(=O)N[C@@H](C(=O)N[C@@H](C(=O)N[C@H](CCC(=O)O)C(=O)N[C@@H](C(=O)N[C@H](Cc1ccccc1)C(=O)NCC(=O)N[C@H](CCC(N)=O)C(=O)N[C@H](CC(C)C)C(=O)NCC(=O)N[C@@H](C(=O)N[C@H](Cc1ccccc1)C(=O)N[C@H](CC(C)C)C(=O)NCC(=O)NCC(=O)N[C@H](Cc1ccccc1)C(=O)NCC(=O)N[C@H](CC(N)=O)C(=O)N[C@@H](C(=O)N[C@H](Cc1ccccc1)C(=O)N[C@H](CCCCN)C(=O)NCC(=O)N[C@H](CC(C)C)C(=O)N[C@H](CCCCN)C(=O)N[C@H](CC(=O)O)C(=O)N[C@@H](C(=O)N[C@@H](C(=O)N[C@H](CCC(=O)O)C(=O)N[C@@H](C(=O)N[C@@H](C(=O)N[C@@H](C(=O)N[C@H](CCCCN)C(=O)N[C@H](Cc1c[nH]c2ccccc12)C(=O)N[C@@H](C(=O)N[C@H](C)C(=O)N[C@H](C)C(=O)N[C@H](CCCCN)C(=O)O)[C@H](C)O)C(C)C)[C@H](C)CC)[C@H](C)O)[C@H](C)CC)C(C)C)[C@H](C)CC)[C@H](C)O)[C@H](C)CC)[C@H](C)O)[C@H](C)CC [DpPorA] (H-[dM][dI][dD][dQ][dI][dT][dE][dI][dF]G[dQ][dL]G[dT][dF][dL]GG[dF]G[dN][dI][dF][dK]G[dL][dK][dD][dV][dI][dE][dT][dI][dV][dK][dW][dT][dA][dA][dK]-OH; N-terminus and C-terminus assumed)
reverse potential (Vm) [1]: +21 mV | stability to proteinase K (proteinase K): resistant to proteinase K action
